Assay results published in BigSolDB 2.1.

CNc1nc(C)nc(OC)n1
solubility (mole fraction)
Settings	278.15 K	283.15 K	288.15 K	293.15 K	298.15 K	303.15 K	308.15 K	313.15 K	318.15 K	323.15 K
in DMF	0.199	0.221	0.245	0.269	0.298	0.324	0.357	0.386	0.416	0.456
in ethanol	0.0496	0.057	0.0655	0.0737	0.0818	0.0914	0.101	0.111	0.123	0.136
in ethylene glycol	0.0208	0.0236	0.0273	0.0309	0.0349	0.039	0.0437	0.0483	0.0534	0.0597
in methanol	0.0666	0.0766	0.0874	0.0983	0.11	0.123	0.138	0.152	0.168	0.185
in water	2.58e-06	3.05e-06	3.53e-06	4.12e-06	4.73e-06	5.33e-06	5.99e-06	6.71e-06	7.57e-06	8.49e-06
